Several values for one entry are separate records, joined by “and”; a condition that tells them apart may be missing. Identical values can stand only once.
Test system: C57BL/6 J mice
Assay: Open-field test (locomotion and thigmotaxis)
Format: in vivo, mouse
Set-up: Total distance travelled in 50 mins (Figure 6a) / Open-field test, locomotion over time (sheet 6b) / Open-field test, thigmotaxis, whole session (sheet 6c): unit not given here
Settings: for Total distance travelled in 50 mins (Figure 6a) / Open-field test, locomotion over time (sheet 6b) / Open-field test, thigmotaxis over time (sheet 6d) / Open-field test, thigmotaxis, whole session (sheet 6c): individual mice
Description: Adult […] C57BL/6 J mice (3-6 months old) were provided by Charles River. Both females and males (15 females and 9 males) were used in this study. Sex was evenly distributed across experimental groups. Sex was not considered in the study design or analysis, as no reports indicate differential expression levels of GPR139 between male and female mice. They were housed with ad libitum food and water, in a temperature and humidity-controlled environment under a standard 12 h light/dark cycle. The experiments were performed in agreement with the European Council Directive (86/609/EEC) and approved by the local Animal Ethics Committee at Karolinska Institute (3218-2022). All efforts were made to minimize suffering and the number of animals used. Mice were treated with either 10% DMSO + 10% solutol HS-15 + 80% saline (vehicle, n = 8), compound 1.5 (n = 8, 30 mg/kg i.p.), or JNJ-63533054 (n = 8, 30 mg/kg i.p.), both of which were dissolved in 10% DMSO + 10% solutol HS-15 + 80% saline. Mice were placed in an open field arena 10 min after the injection and recorded for 50 min. Total distance travelled and the time spent in the periphery arena were measured using an automated video tracking system (EthoVision XT 11.5; Noldus). One-way ANOVA followed by Dunnett’s multiple comparisons test and Two-way ANOVA followed by Tukey’s multiple comparisons test were used. Brain and blood samples were taken immediately after the locomotion test. The brain samples were quickly frozen, and blood was drawn from the cervical vein upon decapitation into EP tubes. The samples were immediately centrifuged for 10 min at 3000 × g at 4 °C, and the plasma was transferred into clean polypropylene tubes. All samples were stored at −80 °C before analysis.

CC(NC(=O)CNC(=O)c1cccc(Cl)c1)c1ccccc1 (stereo not shown) [JNJ-63533054, reference compound]
thigmotaxis (time in the periphery) (30 mg/kg i.p., vs vehicle): spent more time in the periphery compared to the vehicle group
total distance travelled in the open field arena (30 mg/kg i.p., vs vehicle): results similar to those obtained for JNJ-63533054
Total distance travelled in 50 mins (Figure 6a) (30 mg/kg i.p.): 3359.39 and 1792.13 and 2582.49 and 3979.72 and 2080.85 and 9982.78 and 3772.48 and 918.903
Open-field test, locomotion over time (sheet 6b) (5 mins): 932.272 and 989.458 and 1696.51 and 1348.86 and 505.51 and 1391.08 and 1396.99 and 852.786
Open-field test, thigmotaxis over time (sheet 6d) (5 mins, in % (unit assumed)): 70.24 and 93.24 and 86.6 and 72.9333 and 95.6533 and 59.4533 and 79.16 and 62.2
Open-field test, locomotion over time (sheet 6b) (10 mins): 809.521 and 300.737 and 1208.9 and 562.14 and 33.766 and 906.8 and 199.588 and 129.938
Open-field test, thigmotaxis over time (sheet 6d) (10 mins, in % (unit assumed)): 97.5867 and 98.7467 and 63.5867 and 94.9733 and 100 and 78.9333 and 98.0533 and 99.9733
Open-field test, locomotion over time (sheet 6b) (15 mins): 194.752 and 21.7885 and 924.739 and 354.313 and 27.675 and 233.464 and 23.6513 and 7.655
Open-field test, thigmotaxis over time (sheet 6d) (15 mins): 98.8933 and 100 (4×) and 93.1733 and 95.84 and 98.8533
Open-field test, locomotion over time (sheet 6b) (20 mins): 171.669 and 49.3834 and 612.36 and 167.407 and 0 and 187.813 and 0.8234 and 102.119
Open-field test, thigmotaxis over time (sheet 6d) (20 mins): 99.9467 and 100 (4×) and 97.5333 and 99.0133 and 99.7333
Open-field test, locomotion over time (sheet 6b) (25 mins): 630.708 and 147.757 and 783.223 and 246.73 and 0.6166 and 0.4386 and 0.4195 and 141.542
Open-field test, thigmotaxis over time (sheet 6d) (25 mins): 94.8 and 100 (5×) and 94.6667 and 96.8533
Open-field test, locomotion over time (sheet 6b) (30 mins): 4.719 and 265.963 and 938.142 and 27.3973 and 11.6817 and 61.4941 and 0 and 205.37
Open-field test, thigmotaxis over time (sheet 6d) (30 mins): 100 (5×) and 97.44 and 85.8667 and 98.56
Open-field test, locomotion over time (sheet 6b) (35 mins): 3.326 and 8.572 and 1042.9 and 433.751 and 7.486 and 2.001 and 0.4323 and 246.216
Open-field test, thigmotaxis over time (sheet 6d) (35 mins): 100 (5×) and 84.7333 and 92.4267 and 94.5867
Open-field test, locomotion over time (sheet 6b) (40 mins): 521.05 and 1.596 and 845.25 and 8.083 and 7.72 and 4.549 and 0.4103 and 0.9443
Open-field test, thigmotaxis over time (sheet 6d) (40 mins): 97.24 and 100 (6×) and 95.16
Open-field test, locomotion over time (sheet 6b) (45 mins): 294.43 and 290.485 and 1172.17 and 477.116 and 34.0014 and 4.204 and 168.331 and 0.6994
Open-field test, thigmotaxis over time (sheet 6d) (45 mins): 98.6133 and 97.52 and 87.88 and 86.5333 and 99.8133 and 100 (2×) and 97.44
Open-field test, locomotion over time (sheet 6b) (50 mins): 417.274 and 5.107 and 758.587 and 146.686 and 290.447 and 567.543 and 1.48 and 895.221
Open-field test, thigmotaxis over time (sheet 6d) (50 mins): 94.5733 and 100 (2×) and 95.4133 and 11.7333 and 93.0667 and 88.9333 and 83.48
Open-field test, thigmotaxis, whole session (sheet 6c): 97.4653 and 94.024 and 95.1893 and 98.6947 and 88.4613 and 85.0307 and 98.8533 and 92.4467

Cc1nocc1-c1nc(CC(=O)NC(C)c2ccccc2)no1 (stereo not shown) [Compound 1.5, CC(C1=CC=CC=C1)NC(CC2=NOC(C3=CON=C3C)=N2)=O]
Total distance travelled in 50 mins (Figure 6a) (30 mg/kg i.p.): 3619.7 and 1516.14 and 932.636 and 2008.89 and 11482.8 and 3961.35 and 3158.61 and 1417.56
Open-field test, locomotion over time (sheet 6b) (5 mins): 1534.71 and 1388.77 and 1295.98 and 638.887 and 1035.03 and 624.833 and 367.922 and 520.924
Open-field test, thigmotaxis over time (sheet 6d) (5 mins, in % (unit assumed)): 58.4267 and 77.1733 and 70.76 and 76.5333 and 44.5867 and 92.2133 and 78.64 and 98.2267
Open-field test, locomotion over time (sheet 6b) (10 mins): 944.829 and 1045.75 and 698.474 and 211.083 and 1038.45 and 297.32 and 169.554 and 251.751
Open-field test, thigmotaxis over time (sheet 6d) (10 mins, in % (unit assumed)): 57.6133 and 89.2933 and 80.9867 and 94.6933 and 45.7733 and 98.64 and 97.4267 and 99.88
Open-field test, locomotion over time (sheet 6b) (15 mins): 724.917 and 289.775 and 194.585 and 64.0034 and 579.982 and 38.8587 and 84.0131 and 202.975
Open-field test, thigmotaxis over time (sheet 6d) (15 mins): 79.1867 and 87.4267 and 100 (4×) and 67.5067 and 98.8533
Open-field test, locomotion over time (sheet 6b) (20 mins): 43.478 and 341.627 and 152.166 and 3.91 and 301.879 and 49.2379 and 23.1583 and 69.7204
Open-field test, thigmotaxis over time (sheet 6d) (20 mins): 100 (5×) and 93.36 and 86.0667 and 98.92
Open-field test, locomotion over time (sheet 6b) (25 mins): 1347.85 and 148.793 and 124.524 and 4.2615 and 37.5095 and 24.1112 and 17.1945 and 57.9976
Open-field test, thigmotaxis over time (sheet 6d) (25 mins): 75.1067 and 91.4267 and 100 (6×)
Open-field test, locomotion over time (sheet 6b) (30 mins): 1735.43 and 147.426 and 152.999 and 41.6297 and 15.7939 and 39.7283 and 43.7378 and 9.443
Open-field test, thigmotaxis over time (sheet 6d) (30 mins): 59.8267 and 99.36 and 97.2933 and 98.9733 and 100 (3×) and 97.7867
Open-field test, locomotion over time (sheet 6b) (35 mins): 1485.83 and 64.3909 and 126.684 and 26.842 and 6.448 and 42.921 and 11.8566 and 37.4144
Open-field test, thigmotaxis over time (sheet 6d) (35 mins): 59.8533 and 100 (6×) and 99.44
Open-field test, locomotion over time (sheet 6b) (40 mins): 1609.58 and 127.219 and 108.3 and 183.443 and 63.0073 and 201.855 and 59.5513 and 1.7683
Open-field test, thigmotaxis over time (sheet 6d) (40 mins, in % (unit assumed)): 53.72 and 93.1467 and 46.96 and 98.3067 and 97.52 and 91.5467 and 99.2 and 100
Open-field test, locomotion over time (sheet 6b) (45 mins): 1163.43 and 158.947 and 183.999 and 73.8724 and 168.393 and 37.8929 and 22.5543 and 382.596
Open-field test, thigmotaxis over time (sheet 6d) (45 mins): 64.4933 and 94.68 and 93.2533 and 100 (4×) and 88.1333
Open-field test, locomotion over time (sheet 6b) (50 mins): 892.776 and 248.648 and 120.895 and 169.632 and 373.205 and 159.384 and 133.094 and 474.296
Open-field test, thigmotaxis over time (sheet 6d) (50 mins): 89.68 and 89.52 and 96.2267 and 100 (3×) and 96.5733 and 99.2533
Open-field test, thigmotaxis, whole session (sheet 6c): 98.132 and 97.2307 and 99.696 and 69.7907 and 91.5387 and 88.492 and 96.8507 and 82.616

Source: article PMC12775434, “Ultra-large virtual screening unveils potent agonists of the neuromodulatory orphan receptor GPR139” (Nature Communications, 2025)
